Results from PubChem BioAssay AID1259407 (Chemical Carcinogenesis Research Information System (CCRIS), 2018).
Active and inactive are the calls of the source. How the calls were made is not given here.

System: CCRIS mutagenicity, Ames/micronucleus/aberration tests
Assay: CCRIS mutagenicity studies
[1] = Test System: AMES SALMONELLA TYPHIMURIUM, Strain/Indicator: TA98, Metabolic Activation: NONE, Method: STANDARD PLATE
[2] = Test System: AMES SALMONELLA TYPHIMURIUM, Strain/Indicator: TA98, Metabolic Activation: RAT, LIVER, S-9, AROCLOR 1254, Method: STANDARD PLATE
[3] = Test System: AMES SALMONELLA TYPHIMURIUM, Strain/Indicator: TA100, Metabolic Activation: NONE, Method: STANDARD PLATE
[4] = Test System: AMES SALMONELLA TYPHIMURIUM, Strain/Indicator: TA100, Metabolic Activation: RAT, LIVER, S-9, AROCLOR 1254, Method: STANDARD PLATE
[5] = Test System: AMES SALMONELLA TYPHIMURIUM, Strain/Indicator: TA1535, Metabolic Activation: NONE, Method: STANDARD PLATE
[6] = Test System: AMES SALMONELLA TYPHIMURIUM, Strain/Indicator: TA1535, Metabolic Activation: RAT, LIVER, S-9, AROCLOR 1254, Method: STANDARD PLATE
[7] = Test System: AMES SALMONELLA TYPHIMURIUM, Strain/Indicator: TA1537, Metabolic Activation: NONE, Method: PREINCUBATION
[8] = Test System: AMES SALMONELLA TYPHIMURIUM, Strain/Indicator: TA1537, Metabolic Activation: NONE, Method: STANDARD PLATE
[9] = Test System: AMES SALMONELLA TYPHIMURIUM, Strain/Indicator: TA1537, Metabolic Activation: RAT, LIVER, S-9, AROCLOR 1254, Method: STANDARD PLATE
[10] = Test System: AMES SALMONELLA TYPHIMURIUM, Strain/Indicator: TA1538, Metabolic Activation: NONE, Method: STANDARD PLATE
[11] = Test System: AMES SALMONELLA TYPHIMURIUM, Strain/Indicator: TA1538, Metabolic Activation: RAT, LIVER, S-9, AROCLOR 1254, Method: STANDARD PLATE
[12] = Test System: MOUSE LYMPHOMA, Strain/Indicator: L5178Y (TK+/TK-), Metabolic Activation: NONE, Method: SUSPENSION/PLATE
[13] = Test System: MOUSE LYMPHOMA, Strain/Indicator: L5178Y (TK+/TK-), Metabolic Activation: RAT, LIVER, S-9, AROCLOR 1254, Method: SUSPENSION/PLATE

## OC/C=C/c1ccccc1
Test System: AMES SALMONELLA TYPHIMURIUM, Strain/Indicator: TA98, Metabolic Activation: HAMSTER, LIVER, S-9, AROCLOR 1254 (2.5-20%), Method: PREINCUBATION
  mutagenic call: inactive; negative
Test System: AMES SALMONELLA TYPHIMURIUM, Strain/Indicator: TA98, Metabolic Activation: HAMSTER, LIVER, S-9, AROCLOR 1254, Method: STANDARD PLATE
  mutagenic call: inactive; negative
[1]
  mutagenic call: inactive; negative
[2]
  mutagenic call: inactive; negative
Test System: AMES SALMONELLA TYPHIMURIUM, Strain/Indicator: TA100, Metabolic Activation: HAMSTER, LIVER, S-9, AROCLOR 1254 (2.5-20%), Method: PREINCUBATION
  mutagenic call: inactive; negative
Test System: AMES SALMONELLA TYPHIMURIUM, Strain/Indicator: TA100, Metabolic Activation: HAMSTER, LIVER, S-9, AROCLOR 1254, Method: STANDARD PLATE
  mutagenic call: inactive; negative
[3]
  mutagenic call: inactive; negative
[4]
  mutagenic call: inactive; negative
Test System: AMES SALMONELLA TYPHIMURIUM, Strain/Indicator: TA102, Metabolic Activation: HAMSTER, LIVER, S-9, AROCLOR 1254, Method: PREINCUBATION
  mutagenic call: inactive; negative
Test System: AMES SALMONELLA TYPHIMURIUM, Strain/Indicator: TA102, Metabolic Activation: NONE, Method: PREINCUBATION
  mutagenic call: inactive; negative
Test System: AMES SALMONELLA TYPHIMURIUM, Strain/Indicator: TA102, Metabolic Activation: RAT, LIVER, S-9, AROCLOR 1254, Method: PREINCUBATION
  mutagenic call: inactive; negative
Test System: AMES SALMONELLA TYPHIMURIUM, Strain/Indicator: TA1535, Metabolic Activation: HAMSTER, LIVER, S-9, AROCLOR 1254, Method: STANDARD PLATE
  mutagenic call: inactive; negative
[5]
  mutagenic call: inactive; negative
[6]
  mutagenic call: inactive; negative
Test System: AMES SALMONELLA TYPHIMURIUM, Strain/Indicator: TA1537, Metabolic Activation: HAMSTER, LIVER, S-9, AROCLOR 1254, Method: STANDARD PLATE
  mutagenic call: inactive; negative
[7]
  mutagenic call: inactive; negative
[8]
  mutagenic call: inactive; negative
[9]
  mutagenic call: inactive; negative
Test System: AMES SALMONELLA TYPHIMURIUM, Strain/Indicator: TA1538, Metabolic Activation: HAMSTER, LIVER, S-9, AROCLOR 1254, Method: STANDARD PLATE
  mutagenic call: inactive; negative
[10]
  mutagenic call: inactive; negative
[11]
  mutagenic call: inactive; negative
[12]
  mutagenic call: active; positive. reevaluation of results: inconclusive
[13]
  mutagenic call: active; positive. reevaluation of results: positive
Test System: Mouse lymphoma, Strain/Indicator: L5178Y (tk+/tk-), Metabolic Activation: None, Method: Suspension/plate
  mutagenic call: inactive; negative
Test System: Mouse lymphoma, Strain/Indicator: L5178Y (tk+/tk-), Metabolic Activation: Rat, Liver, S-9, Aroclor 1254, Method: Suspension/plate
  mutagenic call: inactive; negative

## CC(CCC(=O)O)(c1ccc(O)cc1)c1ccc(O)cc1
[12]
  mutagenic call: active; positive
Test System: MOUSE LYMPHOMA, Strain/Indicator: L5178Y (TK+/TK-), Metabolic Activation: RAT LIVER S-9, AROCLOR, Method: SUSPENSION/PLATE
  mutagenic call: active; positive

## CC(C)(C)c1cc(-c2ccccc2)ccc1[N+](=O)[O-]
[1]
  mutagenic call: inactive; negative
Test System: AMES SALMONELLA TYPHIMURIUM, Strain/Indicator: TA98, Metabolic Activation: S-9, Method: STANDARD PLATE
  mutagenic call: inactive; negative
[3]
  mutagenic call: inactive; negative
Test System: AMES SALMONELLA TYPHIMURIUM, Strain/Indicator: TA100, Metabolic Activation: S-9, Method: STANDARD PLATE
  mutagenic call: inactive; negative

## Cc1c(N)cc([N+](=O)[O-])c(N)c1C
[1]
  mutagenic call: active; positive
[2]
  mutagenic call: active; positive
[3]
  mutagenic call: inactive; negative
[4]
  mutagenic call: inactive; negative
[5]
  mutagenic call: inactive; negative
[6]
  mutagenic call: inactive; negative
[8]
  mutagenic call: inactive; negative
[9]
  mutagenic call: inactive; negative
[10]
  mutagenic call: active; positive
[11]
  mutagenic call: active; positive

## C=C1C[C@@]23CC[C@H]4[C@@](C)(CCC[C@@]4(C)C(=O)O[C@@H]4O[C@H](CO)[C@@H](O)[C@H](O)[C@H]4O)[C@@H]2CC[C@]1(O[C@@H]1O[C@H](CO)[C@@H](O)[C@H](O[C@@H]2O[C@H](CO)[C@@H](O)[C@H](O)[C@H]2O)[C@H]1O[C@@H]1O[C@@H](C)[C@H](O)[C@@H](O)[C@H]1O)C3
Test System: AMES SALMONELLA TYPHIMURIUM, Strain/Indicator: TM677, Metabolic Activation: RAT, LIVER, S-9, AROCLOR 1254, Method: PREINCUBATION
  mutagenic call: inactive; negative

## COc1c(Cl)c(Cl)c(Cl)c(Cl)c1Cl
Test System: AMES SALMONELLA TYPHIMURIUM, Strain/Indicator: TA98, Metabolic Activation: HAMSTER, LIVER, S-9, AROCLOR 1254 (10%), Method: PREINCUBATION
  mutagenic call: inactive; negative
Test System: AMES SALMONELLA TYPHIMURIUM, Strain/Indicator: TA98, Metabolic Activation: MOUSE, LIVER, S-9, AROCLOR 1254, Method: PREINCUBATION
  mutagenic call: inactive; negative
Test System: AMES SALMONELLA TYPHIMURIUM, Strain/Indicator: TA98, Metabolic Activation: RAT, LIVER, S-9, AROCLOR 1254 (10%), Method: PREINCUBATION
  mutagenic call: inactive; negative
Test System: AMES SALMONELLA TYPHIMURIUM, Strain/Indicator: TA100, Metabolic Activation: HAMSTER, LIVER, S-9, AROCLOR 1254 (10%), Method: PREINCUBATION
  mutagenic call: inactive; negative
Test System: AMES SALMONELLA TYPHIMURIUM, Strain/Indicator: TA100, Metabolic Activation: MOUSE, LIVER, S-9, AROCLOR 1254, Method: PREINCUBATION
  mutagenic call: inactive; negative
Test System: AMES SALMONELLA TYPHIMURIUM, Strain/Indicator: TA100, Metabolic Activation: NONE, Method: PREINCUBATION
  mutagenic call: inactive; negative
Test System: AMES SALMONELLA TYPHIMURIUM, Strain/Indicator: TA100, Metabolic Activation: RAT, LIVER, S-9, AROCLOR 1254 (10%), Method: PREINCUBATION
  mutagenic call: inactive; negative
Test System: AMES SALMONELLA TYPHIMURIUM, Strain/Indicator: TA1535, Metabolic Activation: HAMSTER, LIVER, S-9, AROCLOR 1254 (10%), Method: PREINCUBATION
  mutagenic call: inactive; negative
Test System: AMES SALMONELLA TYPHIMURIUM, Strain/Indicator: TA1535, Metabolic Activation: NONE, Method: PREINCUBATION
  mutagenic call: inactive; negative
Test System: AMES SALMONELLA TYPHIMURIUM, Strain/Indicator: TA1535, Metabolic Activation: RAT, LIVER, S-9, AROCLOR 1254 (10%), Method: PREINCUBATION
  mutagenic call: inactive; negative
Test System: AMES SALMONELLA TYPHIMURIUM, Strain/Indicator: TA1537, Metabolic Activation: HAMSTER, LIVER, S-9, AROCLOR 1254 (10%), Method: PREINCUBATION
  mutagenic call: inactive; negative
[7]
  mutagenic call: active; positive
Test System: AMES SALMONELLA TYPHIMURIUM, Strain/Indicator: TA1537, Metabolic Activation: RAT, LIVER, S-9, AROCLOR 1254 (10%), Method: PREINCUBATION
  mutagenic call: inactive; negative
Test System: E. COLI, Strain/Indicator: WP2, Metabolic Activation: MOUSE, LIVER, S-9, AROCLOR 1254, Method: PREINCUBATION
  mutagenic call: inactive; negative
Test System: E. COLI, Strain/Indicator: WP2, Metabolic Activation: NONE, Method: PREINCUBATION
  mutagenic call: inactive; negative
Test System: E. COLI, Strain/Indicator: WP2 UVRA, Metabolic Activation: MOUSE, LIVER, S-9, AROCLOR 1254, Method: PREINCUBATION
  mutagenic call: inactive; negative
Test System: E. COLI, Strain/Indicator: WP2 UVRA, Metabolic Activation: NONE, Method: PREINCUBATION
  mutagenic call: inactive; negative
[12]
  mutagenic call: inactive; negative
[13]
  mutagenic call: active; positive

## CCCCOc1c(C(=O)NOC(C)=O)ccc2ccccc12
[3]
  mutagenic call: active; positive
Test System: AMES SALMONELLA TYPHIMURIUM, Strain/Indicator: TA100, Metabolic Activation: RAT, S-9, AROCLOR, Method: STANDARD PLATE
  mutagenic call: active; positive
